In US20170010272A1, “RAPID PHENOTYPE TESTS FOR ANTI[…] SENSITIVITY AND RESISTANCE” (STC, UNM, priority 2014, published 2017):
Like-named read-outs stand apart in the source and are kept apart here.

Key:
[1] = oral pyrazinamide, metabolite pyrazinoic acid formed by host hepatic microsomal deamidase, cited from earlier work
[2] = molecular target: deazaflavin (F420) dependent nitroreductase (Ddn) (Mycobacterium tuberculosis, UniProt P9WP15); experiment: activation of nitroimidazoles to NO• by Ddn; format: biochemical; conditions: for activation to NO• by Ddn: FIG. 2; for Ddn mediated production of ^15NO•: FIG. 4
Chain of deazaflavin (F420) dependent nitroreductase (Ddn) (P9WP15 whole entry): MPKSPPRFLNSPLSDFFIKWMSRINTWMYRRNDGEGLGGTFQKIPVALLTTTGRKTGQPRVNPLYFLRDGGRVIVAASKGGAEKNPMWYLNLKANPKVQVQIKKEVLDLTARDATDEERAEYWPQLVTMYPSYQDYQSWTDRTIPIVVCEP

SMILES | activation to NO• by Ddn [2] | Ddn mediated production of ^15NO• [2] | also measured
NC(=O)c1cnccn1 [PZA, pyrazinamide] | – | – | time of peak POA (metabolite) levels after oral dosage [1]: ~6 h; time of peak POA (metabolite) levels after oral dosage ([1]; listed as pyrazinamide): around six
C[C@]1(COc2ccc(N3CCC(Oc4ccc(OC(F)(F)F)cc4)CC3)cc2)Cn2cc([N+](=O)[O-])nc2O1 [OPC67683] | activation of PA824 and OPC67683 to NO• by Ddn | – | –
O=[15N+]([O-])c1cn2c(n1)OC[C@@H](OCc1ccc(OC(F)(F)F)cc1)C2 [^15N-nitro-PA824] | – | Ddn mediated production of ^15NO• | –
CC1(COc2ccc(N3CCC(Oc4ccc(OC(F)(F)F)cc4)CC3)cc2)Cn2cc([15N+](=O)[O-])nc2O1 (stereo not drawn) [^15N-nitro-OPC67683] | – | Ddn mediated production of ^15NO• | –
O=[N+]([O-])c1cn2c(n1)OC[C@@H](OCc1ccc(OC(F)(F)F)cc1)C2 [PA824] | activation of PA824 and OPC67683 to NO• by Ddn | – | –
